Test results published in article PMC8296985, “A Covalent Calmodulin Inhibitor as a Tool to Study Cellular Mechanisms of K-Ras-Driven Stemness” (Frontiers in Cell and Developmental Biology, 2021).

Assays:
[1] = target: T1, mutCaM (CaM with K75Q, K77Q, and K148Q mutations) (Homo sapiens, UniProt P0DP23, K76Q/K78Q); assay: Fluorescence polarization assay with F-CaMKII peptide and His-mutCaM; assay type: binding; settings: 50 nM His-mutCaM, 5 nM F-CaMKII, compared to wt CaM
T1 construct: made in house; host or cells: E. coli BL21 Star (DE3)pLysS
Method: Our numbering of CaM follows ([Kong Au and Chow Leung, 1998]) with Ala being the first amino acid in human CaM, as the N-terminal methionine of CaM is removed in most organisms ([Halling et al., 2016]). […] At A600 of 0.6–0.8, the culture was induced with 0.5 mM of isopropyl β-D-thiogalactopyranoside and expressed for 16 h at 25°C. Cells were collected by centrifugation and incubated on ice for 30 min. The cell suspension was sonicated in a lysis buffer (20 mM HEPES, pH 7.6, 150 mM NaCl, 5 mM MgCl2, 0.5 mg/ml lysozyme, and DNase I). The lysates were clarified by centrifugation at 18,000 g for 30 min at 4°C. The soluble fractions were subjected to protein purification.

calmodulin (CaM) = calmodulin (CaM) (Bos taurus, UniProt P62157); assay: Fluorescence polarization assay, displacement of F-PMCA peptide from CaM; settings: for kinact/KI: read-out: k2/Ki second-order rate constant
K-RasG12V = K-RasG12V nanoclustering-BRET assay in HEK293-EBNA cells; assay type: cell-based
Method: BRET assays were essentially performed as described by others ([Lavoie et al., 2013]; [Bery et al., 2018]). About 100,00–150,000 HEK293-EBNA ([Meissner et al., 2001]) cells were seeded per well of a 12-well plate in 1 ml of DMEM containing 10% FBS and 2 mM L-glutamine and were grown for 24 h. Next day, Rluc8-tagged donor and GFP2-tagged acceptor constructs were transfected into cells using a jetPRIME transfection reagent (cat. no. 114-75, Polyplus). Each well was transfected with about 1 μg of plasmid DNA using 3 μl of the jetPRIME reagent. For BRET donor saturation titration experiments, the concentration of donor plasmid (25 ng) was kept constant, and the concentration of acceptor plasmid was increased from 0 to 500 ng for RasG12V BRET pairs and 0–1,000 ng for K-Ras/CaM BRET pairs. The empty pcDNA3.1(-) plasmid was used to top-up the total DNA load per transfection. After 24 h of transfection, cells were treated with compounds or vehicle control (DMSO 0.2% v/v in a growth medium) at the specified concentration for 24 h or the stipulated time period in case of the time-course experiments. The cells from one well of a 12-well plate were collected, washed, and re-plated in PBS (cat. no. 14190-094, Gibco, Thermo Fisher Scientific) on flat bottom, white 96-well plates (cat. no. 236108, Nunc, Thermo Fisher Scientific) as four technical replicates containing 90 μl of cell suspension per well. Then fluorescence intensity followed by BRET readings were carried out on a Clariostar (BMG Labtech) plate reader at 25°C. The fluorescence intensity (RFU) of GFP2 was measured with excitation at 405 ± 10 nm and emission 515 ± 10 nm; it is proportional to the acceptor concentration [acceptor]. BRET readings were taken well by well by adding 10 μl of 100 μM coelenterazine 400a (cat. no. C-320, GoldBio), the Rluc8 substrate to each well (final concentration of 10 μM) using the injector present in the plate reader. Luminescence emission intensities were simultaneously recorded at 410 ± 40 nm (RLU, proportional to [donor]) and 515 ± 15 nm (BRET signal).
The raw BRET ratio was calculated as the BRET signal measured at 515 nm divided by the emission signal measured at 410 nm (RLU). The BRET ratio was obtained by subtracting the raw BRET ratio by a background BRET signal measured for cells expressing only the donor ([Bacart et al., 2008]) as indicated in the formula below:
For BRET donor saturation titration experiments, the BRET ratio was plotted against the [acceptor]/[donor] ratio. Technical repeat data points were averaged, and data points from all biological repeats were collected into one graph for subsequent fitting. The BRET ratio vs. relative expression data were fitted using a binding saturation equation in the Prism (GraphPad) software to obtain BRETmax and BRET50 using the equation y=BRETmax×x/BRET50+x , where x is the relative expression and y is the BRET ratio. BRETmax represents the maximum saturation BRET signal and depends on the structural parameters (distance, orientation) of the BRET complex. BRET50 corresponds to the ratio of the acceptor construct over the donor construct required to attain 50% of the maximum BRET signal and is a measure of the effective relative affinity between the interacting BRET pair ([Marullo and Bouvier, 2007]).
When applying the DSS analysis to nanoclustering-BRET data, we used mevastatin (10 μM) to obtain the asymptote parameter (a) for the maximal inhibition effect, as it prevents the prenylation of Ras proteins, their plasma membrane trafficking, and therefore nanoclustering. Otherwise, normalized BRET ratio data were converted to % inhibition and then subsequently uploaded onto the Breeze site (see text footnote 1).

Kd (calmodulin (CaM))	affinity difference between Calmirasone1 and calmidazolium (calmodulin (CaM); Kd 0.87 μM vs […])	affinity for CaM relative to OphA (calmodulin (CaM); after 24-h incubation, higher affinity than OphA)	Compound	binding to mutCaM over time [1]	Ki (calmodulin (CaM))	kinact/KI (calmodulin (CaM))	reduction in the K-RasG12V BRET signal (K-RasG12V; 1 at 50 μM, within 10 min of treatment)	higher effectivity than calmidazolium in cell biological experiments (K-RasG12V; Calmirasone1 used at 2.5-fold higher concentration, Figures 3F, 7B)	time-dependent change of K-RasG12V nanoclustering-BRET signal (K-RasG12V; 2-h treatment timeframe, OphA 10 μM, mevastatin 10 μM)	K-Ras selective reduction of nanoclustering-BRET (K-Ras vs H-Ras) (K-RasG12V; 24 h, calmidazolium 20 μM, OphA 2.5 μM, prostratin 10 μM, mevastatin 10 μM, benzazulenones 20 μM)
0.87 µM	64 fold	fourfold	CC(C)c1ccc2cc(C(F)(F)F)c(=O)c3c(N4CCCCC4)c(C=O)c(c1)c23 [Compound 1]	displayed binding to mutCaM	52 µM	2.78 M⁻¹ s⁻¹	38%	> 25 fold		
			CC(C)=C[C@H]1C[C@H](C)[C@]2(CC[C@]3(C)C[C@H]4[C@H](C(=O)C[C@@]4(C)O)/C(C=O)=C\C[C@H]32)O1 [OphA, Ophiobolin A, reference compound]	no binding was observed to mutCaM	79 µM	3.89 M⁻¹ s⁻¹			no significant BRET change	1.2 fold
